Drawing on ChEMBL document CHEMBL3813605, “Jatrophane and ingenane-type diterpenoids from Euphorbia kansui inhibit the LPS-induced NO production in RAW 264.7 cells” (Bioorg Med Chem Lett, 2016), this text covers Activity and IC50 for 17 compounds.

The test system of data set [1] is RAW264.7. Description: Cytotoxicity against mouse RAW264.7 cells assessed as reduction in cell viability by MTT assay. Format: cell-based. Background: Tetrazolium dyes change colour on reduction, which living cells bring about.
Data set [2] has as its system RAW264.7. Kind of data set: Antiinflammatory activity in mouse RAW264.7 cells assessed as inhibition of LPS-induced NO production incubated for 24 hrs by Griess method. Format: functional, cell-based. The following applies: RAW264.7, 24 h. (In general: Nitrite, measured by Griess reagent, commonly stands in for NO production.)

For the compound `CC(=O)OCC1=C[C@@H]2C(=O)[C@]3(C=C(C)[C@H](O)[C@@]3(O)[C@@H]1O)[C@H](C)C[C@@H]1[C@H]2C1(C)C`, in data set [1], the Activity result is reported as “Non-toxic”. Also, in data set [2], the IC50 – broadly, the point on the concentration scale where inhibition reaches its midpoint – is more than 100 µM.

On to `CC(=O)O[C@H]1C(C)=C[C@]23C(=O)[C@@H](C=C(CO)[C@@H](OC(=O)c4ccccc4)[C@]12O)[C@H]1[C@@H](C[C@H]3C)C1(C)C`, for which the Activity entry in data set [1] is given as “Non-toxic”. For the same compound, in data set [2], the IC50 was found to be 29.5 µM.

`C=C1[C@@H](OC(C)=O)[C@@H](OC(=O)c2ccccc2)[C@@H](OC(=O)c2cccnc2)C(C)(C)[C@H]2O[C@](O)([C@H](C)C2=O)[C@@]2(OC(C)=O)C[C@H](C)[C@H](OC(C)=O)[C@@H]2[C@H]1OC(C)=O`: the Activity entry in data set [1] is listed as “Non-toxic”. Moreover, the IC50 in data set [2] came out at 22.1 µM.

Consider `CC1=C[C@@H]2C(=O)[C@]3(C=C(C)[C@H](O)[C@@]3(O)[C@@H]1OC(=O)c1ccccc1)[C@H](C)C[C@@H]1[C@H]2C1(C)C`, for which, in data set [1], the Activity result is reported as “Non-toxic”. Further, the IC50 in data set [2] worked out at 3.1 µM.

As for `C=C1[C@H](OC(=O)c2ccccc2)[C@H]2[C@@H](OC(C)=O)[C@](C)(O)[C@@H](OC(C)=O)[C@]2(O)C(=O)[C@@H](C)/C=C/C(C)(C)C(=O)[C@H](OC(C)=O)[C@H]1OC(=O)c1ccccc1`, the Activity entry in data set [1] is “Non-toxic”. The half-maximal inhibitory concentration (IC50) in data set [2] turned out to be 16.4 µM.

`CC1=C[C@@H]2C(=O)[C@]3(C=C(C)[C@H](OC(=O)c4ccccc4)[C@@]3(O)[C@@H]1O)[C@H](C)C[C@@H]1[C@H]2C1(C)C`: the Activity entry in data set [1] is “Non-toxic”. Also, the half-maximal inhibitory concentration (IC50) in data set [2] stood at 16 µM.

With `C=C1[C@H](OC(=O)c2ccccc2)[C@H]2[C@@H](OC(C)=O)[C@](C)(O)[C@@H](O)[C@]2(OC(C)=O)C(=O)[C@@H](C)/C=C/C(C)(C)C(=O)[C@H](O)[C@H]1OC(=O)c1ccccc1`, the Activity entry in data set [1] is recorded as “Non-toxic”. The 50% inhibitory concentration (IC50) in data set [2] was determined as 46.5 µM.

For `CCCCC/C=C/C=C/C(=O)O[C@@H]1C(COC(C)=O)=C[C@@H]2C(=O)[C@]3(C=C(C)[C@H](O)[C@@]13O)[C@H](C)C[C@@H]1[C@H]2C1(C)C`, the Activity result in data set [1] is given as “Non-toxic”. The IC50 in data set [2] is 7.6 µM.

On to `C=C1[C@@H](OC(C)=O)[C@@H](OC(=O)c2ccccc2)[C@@H](OC(C)=O)C(C)(C)[C@H]2O[C@](O)([C@H](C)C2=O)[C@@]2(OC(C)=O)C[C@@](C)(O)[C@H](OC(C)=O)[C@@H]2[C@H]1OC(C)=O`, for which the Activity result in data set [1] was “Non-toxic”. For the same compound, the IC50 in data set [2] was determined as 50.2 µM.

For `CCCCC/C=C\C=C\C(=O)O[C@@H]1C(COC(C)=O)=C[C@@H]2C(=O)[C@]3(C=C(C)[C@H](O)[C@@]13O)[C@H](C)C[C@@H]1[C@H]2C1(C)C`, the Activity result in data set [1] was “Non-toxic”. Moreover, the half-inhibitory concentration (IC50) in data set [2] is 10.1 µM.

With `C=C1[C@H](OC(C)=O)[C@@H](OC(=O)c2ccccc2)[C@H](OC(=O)c2cccnc2)C(C)(C)[C@H]2O[C@@H]2[C@@H](C)C(=O)[C@@]2(OC(C)=O)C[C@H](C)[C@H](OC(C)=O)[C@@H]2[C@H]1OC(C)=O`, the Activity entry in data set [1] is recorded as “Non-toxic”. Besides, the IC50 in data set [2] was found to be 6.3 µM.

For the compound `CCCCC/C=C\C=C\C(=O)O[C@H]1C(C)=C[C@]23C(=O)[C@@H](C=C(C)[C@@H](O)[C@]12O)[C@H]1[C@@H](C[C@H]3C)C1(C)C`, the Activity result in data set [1] is reported as “Non-toxic”. Besides, in data set [2], the half-maximal inhibitory concentration (IC50) worked out at 14.1 µM.

With `CCCCC/C=C\C=C\C(=O)O[C@H]1C(C)=C[C@]23C(=O)[C@@H](C=C(COC(C)=O)[C@@H](O)[C@]12O)[C@H]1[C@@H](C[C@H]3C)C1(C)C`, in data set [1], the Activity result is listed as “Non-toxic”. The IC50 in data set [2] was 5.1 µM.

On to `CCCCC/C=C/C=C/C(=O)O[C@H]1C(C)=C[C@]23C(=O)[C@@H](C=C(COC(C)=O)[C@@H](O)[C@]12O)[C@H]1[C@@H](C[C@H]3C)C1(C)C`, for which the Activity result in data set [1] is “Non-toxic”. In addition, in data set [2], the 50% inhibitory concentration (IC50) was found to be 0.7 µM.

For `C=C1[C@@H](OC(C)=O)[C@@H](OC(=O)c2ccccc2)[C@@H](OC(C)=O)C(C)(C)[C@H]2O[C@](O)([C@H](C)C2=O)[C@@]2(OC(C)=O)C[C@H](C)[C@H](OC(C)=O)[C@@H]2[C@H]1OC(C)=O`, the Activity entry in data set [1] was “Non-toxic”. Moreover, the IC50 in data set [2] came to 2.9 µM.

Regarding `CC1=C[C@]23C(=O)[C@@H](C=C(CO)[C@@H](O)[C@]2(O)[C@H]1O)[C@H]1[C@@H](C[C@H]3C)C1(C)C` [INGENOL], in data set [1], the Activity entry is on record as “Non-toxic”. Moreover, the 50% inhibitory concentration (IC50) in data set [2] is more than 100 µM.

In the case of `N=C(N)NN` [PIMAGEDINE], the IC50 in data set [2] worked out at 18.7 µM.
